The text below walks through data of patent US20180353483A1, “PHARMACEUTICAL COMPOSITIONS AND METHODS FOR INDOLEAMINE, 2, 3-DIOXYGENASE INHIBITION AND INDICATIONS THEREFOR” (Incyte Corporation, priority 2015, published 2018).

Data set [1] is described as follows: Preclinical PK, cynomolgus monkeys. In kind it is in vivo.
The conditions of data set [2]: male, dog, in vivo, 500 mg/kg/day.
The nature of data set [3]: Preclinical PK, beagle dogs. In kind it is in vivo.
The nature of data set [4]: Preclinical PK, renal excretion after IV dose, mice. In kind it is in vivo.

With `NS(=O)(=O)NCCNc1nonc1C(=NO)Nc1ccc(F)c(Br)c1` [Compound 1, 4-({2-[(aminosulfonyl)amino]ethyl}amino)-N-(3-bromo-4-fluorophenyl)-N′-hydroxy-1,2,5-oxadiazole-3-carboximidamide], the entries for the “systemic clearance in percent hepatic blood flow” value in data set [1] (cynomolgus monkey) and in data set [3] (beagle dog) were 31% and 26%, respectively. For the same compound, the “fraction of oral dose absorbed (Fa)” value in data set [1] (cynomolgus monkeys, estimated from preclinical PK studies (not shown)) is given as 48%; in data set [3] (beagle dogs, estimated from preclinical PK studies (not shown)), 81%. Also, the “renal excretion of unchanged compound” value in data set [1] (monkeys), in data set [3] (dogs) and in data set [4] was “less than 3 % of IV dose” each time. Besides, in data set [2], the “NOAEL unbound AUC0-24h” value is 7.9 µM·h.
